Measurements published in patent US20090233841A1, “ANALGESIC CONJUGATES” (Regents of the University of Minnesota, priority 2005, published 2009).
Entries after “also recorded” stand apart in the source; their conditions may differ.

Key:
male ICR mice [1] = test: Mouse radiant heat tail flick assay after acute ICV administration; assay type: in vivo; details: for ED50 nmol (95% C.L.), antinociceptive potency: mouse tail flick, acute ICV administration, conjugates and coadministration; for effect of naltrindole pretreatment on ED50 / acute analgesic activity: pretreatment with the delta antagonist naltrindole; for ED50 ICV (nmol): tail flick, Table 2
Description: Acute drug administration. Drugs were dissolved in sterile saline (0.9% NaCl). Animals were anesthetized with halothane and drugs were administered with a Hamilton syringe mated to a shortened (3 mm) 27-g needle in a volume of 4 μl by ICV injection into the lateral cerebral ventricle (Haley et al., 1957). The injection site was 1.6 mm lateral and 0.6 mm caudal to bregma.
Antinociceptive testing. […] Mice were tested once before injection (control time).

male ICR mice [2] = test: Tolerance: tail flick ED50 after 3-day chronic ICV infusion (osmotic minipump); assay type: in vivo, mouse; details: for tolerance on chronic ICV administration: 3-day ICV infusion; for Chronic ED50 nmol (95% C.L.): compound chronically administered ICV for 3 days, then challenge doses; for Saline ED50 nmol (95% C.L.): saline chronically administered ICV for 3 days, then challenge doses of compound
Description: (§1) Chronic administration To investigate tolerance and dependence associated with these conjugates, chronic ICV administration studies were performed. The compound of interest was administered ICV via a cannula using an osmotic minipump for 3 days, as previously described (Gomori et al., 2003; Mashiko et al., 2003). Withdrawal was measured by administering naloxone (1 mg/kg; subcutaneous (sc)) and counting the naloxone-precipitated jumps for 10 minutes. Tolerance was determined by administering challenge doses of the compound after chronic infusion for 3 days, and determining the chronic ED50 value at that time.
(§2) Chronic ICV infusion. Osmotic minipumps (model 1003D, Alzet, Durect Corporation, Cupertino, Calif.) were filled with saline or the drug to be tested. The dose of each drug was twelve times its ED50 (nmol)/hour. The minipumps were connected by a 1.6-1.8 cm length of PE-60 tubing to a 3-mm long cannula (osmotic pump connector cannula, Plastics One, Roanoke, Va.) and primed in sterile saline at 37° C. overnight.
(§3) The next day, mice were anesthetized with Avertin (2,2,2-tribromoethanol (370 mg/kg, IP)/tert amyl alcohol (0.16 mg/kg, IP)) before surgery. The scalp was shaved and an incision was made along the midline of the scalp. Hemostats were used to make a pocket under the skin between the shoulder blades. The skull was scraped clean of periosteum so that the cannula pedestal would properly adhere to the skull. A micro drill (Fine Science Tools Inc., Foster City, Calif.) was used to drill a hole approximately 1.6 mm lateral and 0.6 mm caudal to bregma. The minipump was placed between the shoulder blades, the cannula was inserted in the drilled hole into the lateral ventricle, and the cannula pedestal was affixed to the skull with cyanoacrylate glue. The animals were allowed to recover on a heating pad (Fine Science Tools, Foster City, Calif.) and were returned to their cages in the animal facility for three days.
To test the degree of tolerance developed, the osmotic minipump was removed and the mice were returned to their cages for four hours. The mice were then injected with the test drug into the contralateral lateral cerebral ventricle and antinociception was measured with the tail flick test as described above.

male ICR mice [3] = test: Physical dependence: naloxone-precipitated withdrawal jumping after chronic ICV infusion; assay type: in vivo, mouse; details: for physical dependence on chronic ICV administration: 3-day ICV infusion, naloxone-precipitated jumping; for # of Jumps (SEM), naloxone-precipitated withdrawal: average jumps in 10 minutes after naloxone 1 mg/kg sc, after 3-day ICV infusion
Description: as §1, §2, §3
Testing for dependence and tolerance. The development of physical dependence was assessed by quantifying withdrawal jumping observed during precipitated withdrawal (Way et al., 1969) on the fourth day after surgery. Mice were injected with naloxone (1 mg/kg, sc) and placed into Plexiglas cylinders for 10 minutes. During those 10 minutes, vertical jumps were counted as withdrawal signs.

mice = test: Conditioned place preference (CPP); assay type: in vivo, mouse; details: for conditioned place preference: IV; for conditioned place preference (summary statement): dose not restated
Description: Conditioned place preference (CPP) is a technique used to measure the rewarding properties of a drug. Two sides of the CPP apparatus have both visual and tactile differences, so that a mouse can tell the difference between sides. On the first day of testing, the time each mouse spends in either side of the apparatus is measured. For the next three days, the drug is “paired” with one side or the other by injecting the mouse and immediately confining it to that side. On the final day, the amount of time the mouse spends in the drug-paired side is determined and the percent change is calculated. If the percent change is positive, the drug is thought to be rewarding and likely to be abused by humans.
Methods The CPP apparatus used was a plastic box, approximately 12 inches×6 inches×6 inches (1/w/h). One half of the box was transparent with a scored or textured floor and the other half of the box had blue vertical stripes with a smooth floor. The box was divided such that the mice could go from one side to the other through an opening or be confined to one side.
Preconditioning On day 1, each mouse was allowed to explore both sides of the box for 15 minutes to expose them to the novel environment. On day 2, each mouse was placed into the box for 15 minutes and the amount of time the mouse spent in each side of the box was recorded. Mice that spend more than 9 minutes in one side of the box are excluded (two of 32 mice were excluded).
Conditioning On day 3, each mouse was given two sets of IV injections. First, the mice were injected with saline and randomly confined to one side of the box for 30 minutes. The mice were then injected with the drug (or saline, for control mice) and confined to the other side of the box (“drug-paired side”) for 30 minutes. This conditioning paradigm was repeated for three days.
Postconditioning On day 6, the amount of time the mouse spent in each side of the box was recorded. For the results, the amount of time the mouse spent in the drug-paired side during preconditioning was subtracted from the time spent in the drug-paired side during post-conditioning to reach a “score”: Score=Postconditioning time in drug-paired side-Preconditioning time spent in drug-paired side.
FIG. 1 depicts the percent change in time spent in the drug-paired side. The asterisks in the graph indicate significant difference from saline (p<0.05).

male ICR mice [4] = test: Mouse tail flick assay after IV administration; details: for decrease in potency when administering IV versus ICV: tail flick ED50 IV versus ICV
Description: Antinociceptive testing. Antinociception was evaluated by the radiant heat tail flick assay (D'Amour et al., 1941). Briefly, a beam of light was focused on the mouse tail and the time until the tail flicked was measured. Each animal served as its own control and was used only once. Mice were tested once before injection (control time). After injection, the mice were tested at the time of peak drug response (drug time), as determined by pilot time course studies. The light intensity was adjusted so that control times were between 1.5 and 2.5 s. A 10 second cutoff drug time was set to minimize the risk of tissue damage. Percent maximum possible effect (% MPE) was calculated as follows (Dewey et al., 1970): […]
Graded dose response curves of at least 4 doses with at least 8 mice per dose were generated from the % MPE data.
Methods Drugs were administered IV via the tail vein in a volume of 100 μl to male ICR mice. Fifteen minutes later, antinociception was measured by the tail flick assay and charcoal meal (300 μl, oral) was administered by gavage. Thirty minutes after the charcoal meal., the mice were sacrificed by halothane overdose and the distance the charcoal traveled relative to the entire length of the GI tract was compared to the distance traveled in control animals injected with saline. The conjugates tested (MDAN-16, MDAN-19, MDAN-20, and MDAN-21) had linker lengths of 19, 23, 24, and 25 Å.

male ICR mice [5] = test: GI transit inhibition (charcoal meal) after IV administration; assay type: in vivo, mouse

SMILES	ED50 nmol (95% C.L.), antinociceptive potency (male ICR mice [1])	effect of naltrindole pretreatment on ED50 / acute analgesic activity (male ICR mice [1])	Chronic ED50 nmol (95% C.L.) (male ICR mice [2])	Saline ED50 nmol (95% C.L.) (male ICR mice [2])	# of Jumps (SEM), naloxone-precipitated withdrawal (male ICR mice [3])	conditioned place preference (mice; 4× the ED90 analgesic dose)	ED50 ICV (nmol) (male ICR mice [1])	decrease in potency when administering IV versus ICV (male ICR mice [4]) [×]	ED50 IV (nmol) (male ICR mice [4]; tail flick, IV)	conditioned place preference (summary statement) (mice)	other results
CN1CCC23c4c5ccc(O)c4OC2C(NC(=O)COCC(=O)NCCNC(=O)COCC(=O)Nc2cccc4c6c([nH]c24)C2Oc4c(O)ccc7c4C24CCN(CC2CC2)C(C7)C4(O)C6)CCC3(O)C1C5 (stereo not shown) [Compound 3]	1.79 (1.54-2.04) nmol	This effect was not observed	4.72 (3.47-5.91) nmol	1.62 (1.35-1.89) nmol	30 (23)	suggested a place preference	–	–	–	–	tolerance on chronic ICV administration (male ICR mice [2]; listed as MDAN-16): produced both tolerance and dependence; also recorded: both tolerance and physical dependence developed; fold increase in ED50 value after chronic ICV infusion (male ICR mice [2]; three-day ICV infusion): 2.6 fold; physical dependence on chronic ICV administration (male ICR mice [3]; listed as MDAN-16): produced both tolerance and dependence; also recorded: both tolerance and physical dependence developed; # of Jumps (SEM), naloxone-precipitated withdrawal (male ICR mice [3]; listed as MDAN-16): 30
CN1CCC23c4c5ccc(O)c4OC2C(NC(=O)COCC(=O)NCCCCCNC(=O)COCC(=O)Nc2cccc4c6c([nH]c24)C2Oc4c(O)ccc7c4C24CCN(CC2CC2)C(C7)C4(O)C6)CCC3(O)C1C5 (stereo not shown) [Compound 6]	0.43 (0.36-0.50) nmol	acute analgesic activity was similar to the control ligand MA-19	0.40 (0.33-0.47) nmol	0.42 (0.37-0.47) nmol	3.6 (1.7)	did not display a place preference	–	–	–	–	tolerance on chronic ICV administration (male ICR mice [2]; listed as MDAN-19): no tolerance or dependence was observed; also recorded: produced no tolerance or physical dependence; physical dependence on chronic ICV administration (male ICR mice [3]; listed as MDAN-19): no tolerance or dependence was observed; also recorded: produced no tolerance or physical dependence
CN1CCC23c4c5ccc(O)c4OC2C(NC(=O)COCC(=O)NCCCCCCCNC(=O)COCC(=O)Nc2cccc4c6c([nH]c24)C2Oc4c(O)ccc7c4C24CCN(CC2CC2)C(C7)C4(O)C6)CCC3(O)C1C5 (stereo not shown) [Compound 8]	0.08 (0.06-0.10) nmol	–	0.10 (0.09-0.11) nmol	0.10 (0.09-0.11) nmol	3.5 (1.7)	did not display a place preference	0.08 (0.06-0.10) nmol	~40	3.3 (3.0-3.6) nmol	does not produce conditioned place preference	potency relative to morphine when given IV (male ICR mice [4]; tail flick, IV): 50 fold; tolerance on chronic ICV administration (male ICR mice [2]; listed as MDAN-21): no tolerance or dependence was observed; also recorded: produced no tolerance or physical dependence; physical dependence on chronic ICV administration (male ICR mice [3]; listed as MDAN-21): no tolerance or dependence was observed; also recorded: produced no tolerance or physical dependence
CN1CC[C@]23c4c5ccc(O)c4O[C@H]2[C@@H](O)C=C[C@H]3[C@H]1C5 [Morphine, reference compound]	–	–	26.80 (20.82-32.78) nmol	4.54 (3.51-5.56) nmol	100 (15)	demonstrated conditioned place preference	4.1 (3.7-4.8) nmol	~40	168 (146-178) nmol	produced conditioned place preference	efficacy in the TF test (male ICR mice [4]; IV, tail flick 15 min after drug): fully efficacious; # of Jumps (SEM), naloxone-precipitated withdrawal (male ICR mice [3]; listed as morphine): 100±15; efficacy in the GIT inhibition assay (male ICR mice [5]): fully efficacious; GIT inhibition ED50 (male ICR mice [5]; charcoal meal 15 min after drug): 129 (115-142) nmol; conditioned place preference (mice; 2× the ED90 analgesic dose): exhibiting a conditioned place preference
